How the values were obtained:
[1] = test system: zebrafish embryos; assay: Pericardial edema in zebrafish embryos; type: in vivo
Description: (§1) Embryos were dechorinated with pronase at 24 hours post fertilization (hpf) and treated with 50 μg/ml of chloroquine and/or AG1 by directly adding the compounds to the well. For ROS measurements, embryos were incubated with compounds for 2 hours, and then the ROS detecting reagent (CM-H2DCFDA) was added at a final concentration of 500 ng/ml to the well for a total treatment time of 5 hours. One embryo was placed to each well of a black, opaque 96-well plate. The florescence was analyzed with excitation/emission at 485/525 nm. After ROS assays, embryos at about 32 hpf were pooled and lysed in buffer containing 50 mM Tris (pH 7.4), 150 mM NaCl, 1 mM EDTA, 0.1% NP-40, and protease inhibitor cocktail, which was followed by three cycles of freeze and thawing in liquid nitrogen. The lysate was centrifuged at 14,000 rpm at 4° C. for 15 minutes. Total protein concentration in the supernatants (total lysate) was determined by Bradford method. 50 μg of total lysate was loaded onto 10% SDS-PAGE gels and the protein level was examined by Western blot using anti-G6PD antibody (Abcam (G6PD: AB87230)). 10 μg of total lysate was used for enzymatic assay. 50 μg of the lysate was used to measure NADPH levels using a NADPH quantification kit (Biovision), according to the manufacturer's instructions.
Live embryos were anesthetized and mounted in 3% methylcellulose. Embryos were imaged with a Leica M205FA microscope equipped with a 1.0× Plan Apochromatic objective and a SPOT Flex camera or a Leica DM4500B compound microscope equipped with a QImaging Retiga-SRV camera. For hemoglobin staining, fixed embryos were stained with o-dianisidine as previously reported (10), cleared, mounted in 100% glycerol, and imaged with a Leica M205FA microscope equipped with a 1.0× Plan Apochromatic objective and a SPOT Flex camera. All images were captured using SPOT or MetaMorph imaging software (Diagnostic Imaging Inc.) and processed in Photoshop (Adobe). Adjustments were limited to brightness levels and cropping. Analysis was carried out by an observer blinded to the experimental conditions.

[2] = test system: G6PD in zebrafish embryo lysates; assay: G6PD activity in lysates of pooled zebrafish embryos; type: in vivo; conditions: lysates of pooled AG1-treated embryos
Description: as §1

[3] = target: T1, G6PD in human erythrocytes (Homo sapiens, UniProt P11413); assay: G6PD activity in erythrocytes under oxidative stressors; type: cell-based; conditions: drug-induced oxidative stress
T1 construct: host or cells: human erythrocytes
T1 sequence (P11413 2-515 limits assumed): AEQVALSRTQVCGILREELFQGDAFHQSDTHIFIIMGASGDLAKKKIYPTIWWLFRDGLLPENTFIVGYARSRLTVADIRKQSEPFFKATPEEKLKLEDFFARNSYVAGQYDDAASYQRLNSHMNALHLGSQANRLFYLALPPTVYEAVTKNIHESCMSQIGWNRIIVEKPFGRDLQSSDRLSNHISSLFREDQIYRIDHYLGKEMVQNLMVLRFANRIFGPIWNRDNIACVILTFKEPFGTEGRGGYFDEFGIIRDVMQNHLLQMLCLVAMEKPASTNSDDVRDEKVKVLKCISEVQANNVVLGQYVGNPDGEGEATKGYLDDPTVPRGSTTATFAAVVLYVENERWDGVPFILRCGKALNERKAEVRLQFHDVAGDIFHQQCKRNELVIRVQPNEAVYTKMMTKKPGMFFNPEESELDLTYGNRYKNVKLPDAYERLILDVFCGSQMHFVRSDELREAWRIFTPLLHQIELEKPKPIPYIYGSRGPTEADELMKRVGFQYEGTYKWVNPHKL
Description: De-identified blood samples were obtained from the Stanford Blood Center. Erythrocytes were collected by filtering the samples through a cellulose slurry to remove platelets and leukocytes and then washed with saline. G6PD activity was measured (Beutler E. Red cell metabolism: A manual of biochemical methods (3rd edition). Grune & Stratton (1984)). […] A 5% erythrocyte suspension was pre-incubated with 1-5 μM AG1 at 4° C. overnight, which was followed by treatment with (or without) either 1 mM chloroquine (CQ) or 1 mM diamide for 3-4 hours at 37° C. (for hemolysis assay with chloroquine, the mixture was incubated under light). Then centrifugation at 1,000 rpm for 5 minutes was followed. Hemoglobin release in the supernatant was monitored by measuring absorbance at 540 nm. […] After wash, the samples were lysed with 0.1% Triton X-100 (final concentration), and the florescence was analyzed with excitation/emission at 485/525 nm. GSH measurement was determined using a Cayman glutathione assay kit (Cayman Chemicals, 703002). […] The absorbance was read at 412 nm. For storage assay, a 5% erythrocyte suspension was stored at 4° C. with and without 1 μM AG1, and hemolysis and G6PD activity were monitored every week for 28 days to examine whether AG1 improves preservation of erythrocytes over time. Protein leakage was also examined by measuring the absorbance of the supernatant of samples at 280 nm. […]

[4] = target: T2, G6PD in lysate of human fibroblasts with the Mediterranean variant (Homo sapiens, UniProt P11413, S188F); assay: G6PD activity in fibroblast lysate; type: cell-based
T2 construct: host or cells: subject-derived fibroblast cell line
T2 sequence (P11413 2-515 S188F limits assumed): as the sequence (P11413 2-515 limits assumed) above, with S187F counted along it
Description: Lymphocytes derived from a normal subject (HG 00866) and a G6PD-deficient subject carrying Canton variant in G6PD (HG 02367) were purchased from Coriell Institute and cultured in RPMI 1640 supplemented with 15% fetal bovine serum (FBS), 100 U/ml penicillin, and 100 μg/ml streptomycin. An SH-SY5Y neuroblastoma cell line was cultured in Dulbecco's Modification of Eagle's Medium/Ham's F-12 50/50 Mix supplemented with 10% FBS, 100 U/ml penicillin, and 100 μg/ml streptomycin. A G6PD-deficient subject-derived fibroblast cell line carrying Mediterranean variant and normal fibroblast cell line as control were purchased from Coriell Institute (GM 01152) and ThermoFisher Scientific (C0135C), respectively, and cultured in minimum essential medium supplemented with 15% FBS, 100 U/ml penicillin, and 100 μg/ml streptomycin. All the cell lines were maintained at 37° C. in a humidified incubator with an atmosphere of 5% of CO2 and 95% air.
Enzyme activity was measured by monitoring NADPH production, which was coupled with diaphorase converting resazurin to fluorescent resorufin (excitation at 565 nm and emission at 590 nm); fluorescent signal was thus proportional to G6PD activity. Assays were performed at 25° C. and run for 5 minutes in buffer containing 50 mM Tris (pH 7.4), 0.5 mM EDTA, 3.3 mM MgCl2, 1 U/ml diaphorase, 0.1 mM resazurin. […]

[5] = target: T3, WT G6PD (Homo sapiens, UniProt P11413); assay: WT G6PD enzyme activity, recombinant enzyme; type: biochemical
T3 construct: His (pET-28a) (N, cleaved yes); made in house; host or cells: E. coli C43 (DE3)
T3 sequence (P11413 whole entry): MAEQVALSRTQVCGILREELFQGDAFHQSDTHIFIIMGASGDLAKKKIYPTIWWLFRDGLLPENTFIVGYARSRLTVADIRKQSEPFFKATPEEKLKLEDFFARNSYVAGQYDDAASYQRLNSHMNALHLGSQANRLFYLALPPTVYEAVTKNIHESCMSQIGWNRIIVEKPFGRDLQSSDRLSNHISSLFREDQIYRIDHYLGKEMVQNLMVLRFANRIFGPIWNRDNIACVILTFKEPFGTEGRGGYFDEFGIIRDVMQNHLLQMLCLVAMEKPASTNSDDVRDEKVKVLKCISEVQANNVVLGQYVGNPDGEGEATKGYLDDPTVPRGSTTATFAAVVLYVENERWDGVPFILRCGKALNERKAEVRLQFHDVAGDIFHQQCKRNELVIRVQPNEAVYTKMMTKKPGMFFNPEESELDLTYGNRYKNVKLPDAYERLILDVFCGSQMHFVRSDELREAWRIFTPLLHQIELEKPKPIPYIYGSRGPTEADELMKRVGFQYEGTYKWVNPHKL
Description: Enzyme activity was measured by monitoring NADPH production, which was coupled with diaphorase converting resazurin to fluorescent resorufin (excitation at 565 nm and emission at 590 nm); fluorescent signal was thus proportional to G6PD activity. Assays were performed at 25° C. and run for 5 minutes in buffer containing 50 mM Tris (pH 7.4), 0.5 mM EDTA, 3.3 mM MgCl2, 1 U/ml diaphorase, 0.1 mM resazurin. 10 ng of recombinant enzymes or 10 μg of cell lysates was used for the assay with 10 μM NADP^+ (Sigma) as cofactor and 100 μM G6P (Sigma) as substrate. Steady-state kinetic parameters were obtained by varying concentrations of NADP^+ (0-10 μM) with a constant concentration of G6P (100 μM) and similarly for G6P (0-100 μM) with a constant concentration of NADP^+ (10 μM) with 10 ng of recombinant enzymes. Data analysis was performed using GraphPad Prism software v.6 (GraphPad Software, La Jolla, Calif. USA). Kinetic parameters were obtained by fitting the data to the Michaelis-Menten equation.

SCCNCCc1c[nH]c2ccccc12 [AG1, 2-[2-(1H-indol-3-yl)ethylamino]ethanethiol]
embryos exhibiting pericardial edema ([1]; chloroquine 50 μg/ml): less embryos exhibiting pericardial edema
pericardial edema due to mesoderm defects ([1]; tbx16 mutants): not corrected
G6PD activity [2]: slight increase
G6PD activity [3]: increased
increase of G6PD activity in lysate [4]: 50%
increase of WT G6PD activity over basal activity [5]: about 20%
